For one compound, Km results are on record in PMC5142622, “Attenuation of the Type IV Pilus Retraction Motor Influences Neisseria gonorrhoeae Social and Infection Behavior” (mBio, 2016).

This test addresses PilT (Neisseria gonorrhoeae, UniProt Q53432). As to conditions: MgCl2 5 mM, Tris 150 mM pH 8.5, NaCl 150 mM, 37 °C; variable ATP, 10 min.

PilT, sequence (Q53432 entry or part of it): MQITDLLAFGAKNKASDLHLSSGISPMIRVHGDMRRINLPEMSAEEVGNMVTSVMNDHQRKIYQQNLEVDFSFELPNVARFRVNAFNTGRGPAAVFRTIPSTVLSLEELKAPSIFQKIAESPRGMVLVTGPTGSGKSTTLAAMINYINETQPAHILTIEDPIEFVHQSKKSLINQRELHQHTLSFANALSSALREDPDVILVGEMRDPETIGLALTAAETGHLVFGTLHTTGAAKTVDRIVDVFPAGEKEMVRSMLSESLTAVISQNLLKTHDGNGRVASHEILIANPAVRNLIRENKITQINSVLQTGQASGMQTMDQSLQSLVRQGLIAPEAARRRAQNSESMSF

In the case of `Nc1ncnc2c1ncn2[C@@H]1O[C@H](COP(=O)(O)OP(=O)(O)OP(=O)(O)O)[C@@H](O)[C@H]1O` [ATP], the Km is on record as 0.38 nmol.
